Experimental data from patent publication US8946282B2, “Indolin-2-one derivatives as protein kinase inhibitors” (Annji Pharmaceutical Co., Ltd., priority 2012, dated 2015).

Tests used:
aurora B = aurora B (Homo sapiens, UniProt Q96GD4); assay: radioisotope-based P81 filter-binding assay, aurora B kinase; assay type: biochemical; settings: averaged from two independent dose-response curves; read-out: Enzyme assay IC50 Aur B
Method: (§1) Compounds of formula (I)-(IV) were evaluated for abilities in inhibiting protein kinases aurora B and FLT-3 activity using radioisotope-based P81 filter-binding assay (Table 1).

[1] = test system: HepG2 human hepatocellular carcinoma cells; assay: anti-proliferation, SRB colorimetric assay, HepG2; assay type: cell-based; settings: concentration required for 50% growth inhibition, read-out: IC50 (μM, mean ± S.D.)
Description: HCT116 human colorectal carcinoma cells (Table 3), HepG2 human hepatocellular carcinoma cells (Table 4), and MV4-11 human acute myelomonocytic leukemia cells (Table 5).

[2] = test system: A549 human lung carcinoma cells; assay: anti-proliferation, SRB colorimetric assay, A549; assay type: cell-based; settings: concentration required for 50% growth inhibition, read-out: IC50 (μM, mean ± S.D.)
FLT-3 = biological target: T1, FLT-3 (Homo sapiens, UniProt P36888); assay: radioisotope-based P81 filter-binding assay, FLT-3 kinase; assay type: biochemical; settings: averaged from two independent dose-response curves; read-out: Enzyme assay IC50 FLT-3
T1 sequence (P36888 27-993): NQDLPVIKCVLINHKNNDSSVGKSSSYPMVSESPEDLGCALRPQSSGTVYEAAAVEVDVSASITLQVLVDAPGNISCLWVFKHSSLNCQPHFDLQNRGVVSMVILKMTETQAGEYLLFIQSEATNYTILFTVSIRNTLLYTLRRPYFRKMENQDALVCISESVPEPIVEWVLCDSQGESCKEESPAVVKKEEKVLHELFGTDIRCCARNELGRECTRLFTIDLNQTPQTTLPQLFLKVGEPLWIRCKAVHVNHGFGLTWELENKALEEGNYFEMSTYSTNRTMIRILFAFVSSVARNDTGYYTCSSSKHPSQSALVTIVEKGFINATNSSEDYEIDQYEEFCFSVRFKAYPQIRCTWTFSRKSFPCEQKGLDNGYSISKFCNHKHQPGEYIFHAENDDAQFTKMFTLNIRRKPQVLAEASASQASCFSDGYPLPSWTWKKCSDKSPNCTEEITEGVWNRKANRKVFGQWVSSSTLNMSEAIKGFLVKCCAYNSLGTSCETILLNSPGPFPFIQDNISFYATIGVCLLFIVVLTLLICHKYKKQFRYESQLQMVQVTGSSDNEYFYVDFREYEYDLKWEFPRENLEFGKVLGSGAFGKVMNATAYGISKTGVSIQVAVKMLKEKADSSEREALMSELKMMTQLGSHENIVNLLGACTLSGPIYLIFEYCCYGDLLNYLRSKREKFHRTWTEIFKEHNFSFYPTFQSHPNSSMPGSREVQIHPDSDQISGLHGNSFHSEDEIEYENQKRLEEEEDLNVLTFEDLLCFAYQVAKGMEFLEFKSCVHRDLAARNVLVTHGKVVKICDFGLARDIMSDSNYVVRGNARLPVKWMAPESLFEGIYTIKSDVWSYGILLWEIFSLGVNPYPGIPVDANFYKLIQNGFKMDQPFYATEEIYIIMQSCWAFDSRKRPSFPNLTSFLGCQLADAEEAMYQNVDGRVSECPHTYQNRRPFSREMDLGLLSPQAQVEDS
Method: as §1

[3] = test system: MV4-11 human acute myelomonocytic leukemia cells; assay: anti-proliferation, SRB colorimetric assay, MV4-11; assay type: cell-based; settings: concentration required for 50% growth inhibition
Method: (§2) HCT116 human colorectal carcinoma cells (Table 3), HepG2 human hepatocellular carcinoma cells (Table 4), and MV4-11 human acute myelomonocytic leukemia cells (Table 5). Cells were treated with the test compound and the concentration required for 50% growth inhibition (IC50) determined by sulfomodamine B (SRB) colorimetric assay.

[4] = test system: HCT116 human colorectal carcinoma cells; assay: anti-proliferation, SRB colorimetric assay, HCT116; assay type: cell-based; settings: HCT-116, concentration required for 50% growth inhibition, read-out: IC50 (μM, mean ± S.D.)
Method: as §2

Huh7 cancer cell line = assay: in vivo efficacy, Huh7 xenografts in SCID mice; settings: established xenografts of Huh7 cancer cell line in female SCID mice

Chain of aurora B (Q96GD4 whole entry): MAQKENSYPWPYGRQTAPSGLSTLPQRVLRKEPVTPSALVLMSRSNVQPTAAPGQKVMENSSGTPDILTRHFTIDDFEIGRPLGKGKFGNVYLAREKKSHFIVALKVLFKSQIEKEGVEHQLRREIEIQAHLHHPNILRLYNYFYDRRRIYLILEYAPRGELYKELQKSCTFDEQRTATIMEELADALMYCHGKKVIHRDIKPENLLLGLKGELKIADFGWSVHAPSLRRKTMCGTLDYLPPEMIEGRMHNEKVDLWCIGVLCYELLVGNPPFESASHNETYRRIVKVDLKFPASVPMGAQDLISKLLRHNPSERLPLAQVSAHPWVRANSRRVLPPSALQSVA

Row | IC50 (aurora B) | IC50 [1] | IC50 [2] | IC50 (FLT-3) | IC50 [3] | melting point | IC50 [4] | SMILES | tumor size (Huh7 cancer cell line)
1 | 0.0102 µM | 0.81 ± 0.04 µM | 0.62 ± 0.06 µM | 0.0249 µM | 0.025 µM | > 300 °C | 0.63 ± 0.09 µM | COc1ccc(-c2c[nH]cc(C(=O)Nc3ccc4c(c3)NC(=O)/C4=C\c3ccc[nH]3)c2=O)cc1 [D128, (Z)—N-(3-((1H-pyrrol-2-yl)methylene)-2-oxoindolin-6-yl)-5-(4-methoxyphenyl)-4-oxo-1,4-dihydropyridine-3-carboxamide] | 
2 | 0.0015 µM | 0.47 ± 0.1 µM | 0.11 ± 0.01 µM | 0.0124 µM |  | 267 to 272 °C (dec.) | 0.97 ± 0.21 µM | Cc1[nH]c(/C=C2\C(=O)Nc3cc(NC(=O)NC(=O)c4ccccc4F)ccc32)c(C)c1CCC(=O)O [D54, (Z)-3-(5-((6-(3-(2-fluorobenzoyl)ureido)-2-oxoindolin-3-ylidene)methyl)-2,4-dimethyl-1H-pyrrol-3-yl)propanoic acid] | 
3 | 0.0538 µM | 0.67 ± 0.05 µM | < 0.1 µM | 0.0076 µM | 0.00438 µM | > 300 °C | 0.57 ± 0.04 µM | O=C1Nc2cc(NC(=O)c3c[nH]cc(-c4ccc(Cl)cc4)c3=O)ccc2/C1=C/c1ccc[nH]1 [D130, (Z)—N-(3-((1H-pyrrol-2-yl)methylene)-2-oxoindolin-6-yl)-5-(4-chlorophenyl)-4-oxo-1,4-dihydropyridine-3-carboxamide] | 
4 | 0.0632 µM | 0.71 ± 0.07 µM | 0.52 ± 0.03 µM | 0.0747 µM | 0.0184 µM | > 300 °C | 0.56 ± 0.03 µM | Cc1ccc(-c2c[nH]cc(C(=O)Nc3ccc4c(c3)NC(=O)/C4=C\c3ccc[nH]3)c2=O)cc1 [D131, (Z)—N-(3-((1H-pyrrol-2-yl)methylene)-2-oxoindolin-6-yl)-5-p-tolyl-4-oxo-1,4-dihydropyridine-3-carboxamide] | 
5 | 0.348 µM | 0.73 ± 0.03 µM | 0.45 ± 0.08 µM | 0.1 µM | 0.0059 µM | > 300 °C | 0.65 ± 0.04 µM | O=C1Nc2cc(NC(=O)c3c[nH]cc(-c4ccc(C(F)(F)F)cc4)c3=O)ccc2/C1=C/c1ccc[nH]1 [D133] | 
6 | 0.0255 µM | 0.6 ± 0.07 µM | 0.46 ± 0.06 µM | 0.1 µM | 0.0132 µM | > 300 °C | 0.73 ± 0.09 µM | O=C1Nc2cc(NC(=O)c3c[nH]cc(-c4ccccc4F)c3=O)ccc2/C1=C/c1ccc[nH]1 [D134, (Z)—N-(3-((1H-pyrrol-2-yl)methylene)-2-oxoindolin-6-yl)-4-oxo-5-(2-fluorophenyl)-1,4-dihydropyridine-3-carboxamide] | suppressed the tumor size
7 | 0.0645 µM | 0.56 ± 0.16 µM | 0.59 ± 0.09 µM | 0.0501 µM | 0.00425 µM | > 300 °C | 0.78 ± 0.1 µM | O=C1Nc2cc(NC(=O)c3c[nH]cc(-c4ccc(F)cc4F)c3=O)ccc2/C1=C/c1ccc[nH]1 [D135, (Z)—N-(3-((1H-pyrrol-2-yl)methylene)-2-oxoindolin-6-yl)-4-oxo-5-(2,4-difluorophenyl)-1,4-dihydropyridine-3-carboxamide] | 
8 | 0.161 µM | 0.55 ± 0.03 µM | 0.5 ± 0.01 µM | 0.148 µM | 0.0091 µM | > 300 °C | 0.63 ± 0.03 µM | O=C1Nc2cc(NC(=O)c3c[nH]cc(-c4cccc(Cl)c4)c3=O)ccc2/C1=C/c1ccc[nH]1 [D132, (Z)—N-(3-((1H-pyrrol-2-yl)methylene)-2-oxoindolin-6-yl)-5-(3-chlorophenyl)-4-oxo-1,4-dihydropyridine-3-carboxamide] | 

Row | SMILES | IC50 (aurora B) | IC50 [1] | IC50 [2] | IC50 (FLT-3) | IC50 [3] | melting point | IC50 [4] | tumor size (Huh7 cancer cell line)
9 | CCN(CC)CCNC(=O)c1c(C)[nH]c(/C=C2\C(=O)Nc3cc(NC(=O)NC(=O)c4ccc(OC)cc4F)ccc32)c1C [D69, (Z)—N-(2-(diethylamino)ethyl)-5-((6-(3-(2-fluoro-4-methoxybenzoyl)ureido)-2-oxoindolin-3-ylidene)methyl)-2,4-dimethyl-1H-pyrrole-3-carboxamide] | 0.0076 µM | 0.88 ± 0.04 µM | 0.46 ± 0.07 µM | 0.0044 µM |  | 275 to 280 °C (dec.) | 0.91 ± 0.01 µM | 
